Experiment [1] addresses Insulin-degrading enzyme (Homo sapiens) (UniProt P14735). As to the kind of experiment: Irreversible inhibition of human recombinant IDE expressed in Escherichia coli BL21 (DE3) cells using ATTO 655- Cys-Lys-Leu-Val-Phe-Phe-Ala-Glu-Asp-Trp as substrate preincubated for 30 mins followed by 100 fold compound dilution by spectrophotometric analysis.
Experiment [2] shares this target. The following applies: HepG2, 30 uM.
The target of experiment [3] is Insulin-degrading enzyme (Homo sapiens, UniProt P14735, C110L/C171S/C178A/C257V/C414L/C573N/C590S/C789S/C812A/C819A/C904S/C966N/C974A). As to the kind of experiment: biochemical.
Sequence of Insulin-degrading enzyme (Homo sapiens, UniProt P14735, C110L/C171S/C178A/C257V/C414L/C573N/C590S/C789S/C812A/C819A/C904S/C966N/C974A) (P14735 whole entry C110L/C171S/C178A/C257V/C414L/C573N/C590S/C789S/C812A/C819A/C904S/C966N/C974A): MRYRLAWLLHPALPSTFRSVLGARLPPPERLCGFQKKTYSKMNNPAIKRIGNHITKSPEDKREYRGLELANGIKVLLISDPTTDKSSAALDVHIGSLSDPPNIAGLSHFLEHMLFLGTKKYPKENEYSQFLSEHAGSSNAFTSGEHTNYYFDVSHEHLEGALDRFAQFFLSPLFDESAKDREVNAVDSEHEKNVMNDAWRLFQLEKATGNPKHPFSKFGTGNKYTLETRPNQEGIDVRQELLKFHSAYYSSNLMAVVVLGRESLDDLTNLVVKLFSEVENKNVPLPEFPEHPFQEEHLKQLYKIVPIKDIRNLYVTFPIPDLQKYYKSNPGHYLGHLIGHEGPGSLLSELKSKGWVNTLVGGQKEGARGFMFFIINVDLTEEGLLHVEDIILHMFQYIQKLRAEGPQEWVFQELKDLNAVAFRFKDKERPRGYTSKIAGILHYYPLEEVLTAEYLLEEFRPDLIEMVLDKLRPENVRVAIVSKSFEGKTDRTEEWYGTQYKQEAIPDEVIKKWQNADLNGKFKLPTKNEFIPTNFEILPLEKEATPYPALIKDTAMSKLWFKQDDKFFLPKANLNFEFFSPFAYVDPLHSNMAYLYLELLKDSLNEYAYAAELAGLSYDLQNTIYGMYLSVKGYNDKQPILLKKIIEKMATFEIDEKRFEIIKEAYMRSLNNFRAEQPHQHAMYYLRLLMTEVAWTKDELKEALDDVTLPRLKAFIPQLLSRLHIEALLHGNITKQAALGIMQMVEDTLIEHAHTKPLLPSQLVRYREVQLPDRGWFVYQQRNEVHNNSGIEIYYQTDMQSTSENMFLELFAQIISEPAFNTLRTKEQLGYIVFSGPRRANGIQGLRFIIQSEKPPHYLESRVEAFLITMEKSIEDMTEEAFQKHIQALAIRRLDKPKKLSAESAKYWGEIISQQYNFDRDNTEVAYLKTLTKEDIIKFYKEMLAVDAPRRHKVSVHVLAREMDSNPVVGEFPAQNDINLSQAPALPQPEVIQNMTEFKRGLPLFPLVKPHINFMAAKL
Experiment [4] addresses Insulin-degrading enzyme (Homo sapiens) (UniProt P14735). The note with it: 2 mM.
For experiment [5] the target is unchanged. The experiment can be described thus: Inhibition of human recombinant IDE expressed in Escherichia coli BL21 (DE3) cells using ATTO 655- Cys-Lys-Leu-Val-Phe-Phe-Ala-Glu-Asp-Trp as substrate at 100 uM preincubated for 10 mins followed by substrate addition and measured after 30 mins by spectrophotometric analysis relative to control.
For experiment [6], the target named is T1, Insulin-degrading enzyme (Homo sapiens, UniProt P14735).
T1 sequence (P14735 whole entry): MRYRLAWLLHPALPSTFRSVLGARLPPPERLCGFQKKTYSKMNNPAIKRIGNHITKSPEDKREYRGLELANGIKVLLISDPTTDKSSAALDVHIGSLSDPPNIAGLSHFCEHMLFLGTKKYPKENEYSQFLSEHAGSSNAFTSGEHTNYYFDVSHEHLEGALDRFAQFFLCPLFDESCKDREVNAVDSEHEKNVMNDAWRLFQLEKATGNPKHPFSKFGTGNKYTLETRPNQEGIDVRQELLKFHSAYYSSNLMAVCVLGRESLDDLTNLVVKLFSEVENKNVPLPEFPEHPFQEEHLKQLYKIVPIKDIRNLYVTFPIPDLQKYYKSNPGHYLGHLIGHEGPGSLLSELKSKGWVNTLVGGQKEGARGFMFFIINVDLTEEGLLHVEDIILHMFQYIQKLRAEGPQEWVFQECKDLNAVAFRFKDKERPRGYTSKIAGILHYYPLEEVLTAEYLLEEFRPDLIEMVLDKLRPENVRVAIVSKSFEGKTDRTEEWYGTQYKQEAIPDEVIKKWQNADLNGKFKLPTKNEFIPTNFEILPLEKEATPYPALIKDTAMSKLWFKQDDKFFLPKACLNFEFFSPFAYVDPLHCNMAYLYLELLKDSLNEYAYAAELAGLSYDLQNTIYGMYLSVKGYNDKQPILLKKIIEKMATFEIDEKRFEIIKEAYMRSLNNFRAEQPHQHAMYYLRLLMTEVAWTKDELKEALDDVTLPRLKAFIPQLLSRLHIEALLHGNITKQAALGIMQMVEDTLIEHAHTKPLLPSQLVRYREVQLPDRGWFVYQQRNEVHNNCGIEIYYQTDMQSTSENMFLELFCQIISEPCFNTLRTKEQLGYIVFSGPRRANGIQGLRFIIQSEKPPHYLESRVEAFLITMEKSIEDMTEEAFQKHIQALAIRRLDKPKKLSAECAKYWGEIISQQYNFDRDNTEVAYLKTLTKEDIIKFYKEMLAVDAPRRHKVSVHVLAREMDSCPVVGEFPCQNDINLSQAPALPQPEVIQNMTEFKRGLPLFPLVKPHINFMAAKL
As to the kind of experiment: Inhibition of human recombinant IDE expressed in Escherichia coli BL21 (DE3) cells using ATTO 655- Cys-Lys-Leu-Val-Phe-Phe-Ala-Glu-Asp-Trp as substrate preincubated for 10 mins followed by substrate addition and measured after 30 mins by spectrophotometric analysis.

By inhibition is commonly meant the relative decrease from the control value, in per cent. Broadly, the IC50 is the point on the concentration scale where inhibition reaches its midpoint.

SMILES strings stand for the structures. Activity calls are given as the source filed them. No cut-off for these calls is given here.

Regarding `CCN1C(=O)C=CC1=O`, the inhibition entry in experiment [1] was “Active”. `O=c1c2ccccc2[se]n1-c1ccccc1` came in with a deltaT in experiment [2] of 1.3 °C. In turn, `O=C(C[C@@H](Cc1ccc2ccccc2c1)n1cc(CNC(=O)c2ccc(F)cc2)nn1)NO` gave a deltaT in experiment [2] of 6.4 °C. Also, the midpoint of inhibition on Insulin-degrading enzyme [3], the IC50, lay at 0.33 µM. Take `O=C(O)CN(CCN(CC(=O)O)CC(=O)O)CC(=O)O`: in experiment [4], the inhibition is 100%.

Turning to `COc1ccnc(C[S+]([O-])c2nc3cc(OC(F)F)ccc3[nH]2)c1OC` (configuration not stated), the inhibition in experiment [5] was 0%. Regarding `O=c1c(O)c(-c2cc(O)c(O)c(O)c2)oc2cc(O)cc(O)c12` [MYRICETIN], the IC50 at Insulin-degrading enzyme [6] worked out at 100 µM. With `Cc1c(OCC(F)(F)F)ccnc1C[S+]([O-])c1nc2ccccc2[nH]1` (configuration not stated), in experiment [5], the inhibition was determined as 38%. The same measure, in the same setting: in the case of `COc1ccc2[nH]c([S+]([O-])Cc3ncc(C)c(OC)c3C)nc2c1` (configuration not stated) it was 41%. As for `COCCCOc1ccnc(C[S+]([O-])c2nc3ccccc3[nH]2)c1C` (configuration not stated) [RABEPRAZOLE], at Insulin-degrading enzyme [6], the IC50 was determined as 11 µM. Besides, the inhibition in experiment [5] is 98%. Take `COc1ccc2[nH]c([S+]([O-])Cc3ncc(C)c(OC)c3C)nc2n1` (configuration not stated): in experiment [5], the inhibition is 35%.

The values are drawn from ChEMBL document CHEMBL4396912 (Eur J Med Chem, 2019).
